Target: T1, Seed linoleate 13S-lipoxygenase-1 (Glycine max, UniProt P08170)
T1 sequence (P08170 whole entry): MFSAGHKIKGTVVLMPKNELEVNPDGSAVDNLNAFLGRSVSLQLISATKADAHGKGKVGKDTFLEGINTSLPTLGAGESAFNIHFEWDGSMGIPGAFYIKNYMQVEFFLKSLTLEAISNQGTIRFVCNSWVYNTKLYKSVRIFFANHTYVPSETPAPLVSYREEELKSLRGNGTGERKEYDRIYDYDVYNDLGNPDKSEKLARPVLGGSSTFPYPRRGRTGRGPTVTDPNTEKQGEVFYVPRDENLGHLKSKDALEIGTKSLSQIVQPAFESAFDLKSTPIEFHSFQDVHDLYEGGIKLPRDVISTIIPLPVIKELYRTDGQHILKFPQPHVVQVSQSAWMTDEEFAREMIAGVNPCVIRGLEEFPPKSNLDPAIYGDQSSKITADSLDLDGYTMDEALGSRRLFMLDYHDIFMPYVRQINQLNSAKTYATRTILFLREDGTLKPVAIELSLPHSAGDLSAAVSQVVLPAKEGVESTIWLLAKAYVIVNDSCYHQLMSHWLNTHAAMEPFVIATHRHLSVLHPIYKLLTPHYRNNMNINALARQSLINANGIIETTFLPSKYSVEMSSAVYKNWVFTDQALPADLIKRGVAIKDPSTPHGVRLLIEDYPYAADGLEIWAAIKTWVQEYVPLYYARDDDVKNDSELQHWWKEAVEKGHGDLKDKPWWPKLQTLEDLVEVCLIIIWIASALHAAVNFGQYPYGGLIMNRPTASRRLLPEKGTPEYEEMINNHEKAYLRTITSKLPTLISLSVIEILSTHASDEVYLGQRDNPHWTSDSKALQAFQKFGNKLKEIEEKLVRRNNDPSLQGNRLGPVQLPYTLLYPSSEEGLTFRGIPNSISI
Assay: Inhibition Assay
Settings: pH 8; 25 °C
Protocol: Lipoxygenase inhibiting activity was measured by slightly modifying the spectrometric method. Lipoxygenase type I-B and linoleic acid were purchased from Sigma.

Row | IC50 | Compound
1 | 44.3 µM | O=C(OCC1=C[C@@H](O)[C@@H]2C=CO[C@@H](OC3OC(CO)C(O)C(O)C3O)[C@H]12)c1ccc(O)cc1 (some centres not stated) [Buddlejoside A, 1]
2 | 41.9 µM | COc1ccc(/C=C/C(=O)OC2C(C)OC(O[C@@H]3C=C(CO)C4C3C=CO[C@H]4OC3OC(CO)C(O)C(O)C3O)C(OC(C)=O)C2O)cc1 (some centres not stated) [Buddlejoside A2, 6]
3 | 52.5 µM | CC(C)CC(=O)OCC1=C[C@@H](O)[C@@H]2C=CC[C@H](OC3OC(CO)C(O)C(O)C3O)[C@H]12 (some centres not stated) [Buddlejoside C, 3]
4 | 39.7 µM | O=C(OCC1=C[C@@H](O)[C@@H]2C=CO[C@@H](OC3OC(CO)C(O)C(O)C3O)[C@H]12)c1ccc(O)c(O)c1 (some centres not stated) [Buddlejoside B, 2]
5 | 49.6 µM | COC(=O)C1=CO[C@@H](O)C2C(CO)C=CC12 (some centres not stated) [Genipin, 4]
6 | 47.3 µM | COC(=O)[C@@H]1C2C=C[C@@]3(O)CO[C@@H](O[C@@H]1O)C23 (stereo partly drawn) [Beta-gardiol, 5]
7 | 40.4 µM | COc1ccc(/C=C/C(=O)OC2C(O)C(C)OC(O[C@H]3C4C=CO[C@@H](OC5OC(CO)C(O)C(O)C5O)C4[C@@]4(CO)O[C@@H]34)C2OC(C)=O)cc1 (some centres not stated) [Buddlejoside A5, 7]

From BindingDB's records for doi:10.1080/14756360701342532 (Chinese Academy of Medical Sciences, 2008)
